# Measurements as given in patent publication US9353156B2, “Oligopeptide compounds and uses thereof” (Cytovation AS, priority 2010, dated 2016).
# Legend:
# [1] = system: 142 cells, HFF1 cells, 143 carcinoma cells, HOS sarcoma cell line (FIG. 5); assay: LIVE/DEAD kit, fluorescence microscopy of monolayers (FIG. 5, text); format: cell-based; details: 10 μg/ml of peptide
# Source text: The LIVE/DEAD® Viability/Cytotoxicity kit employs a fluorescent dye to assess mammalian cell viability. Calcein AM and ethidium homodimer-1 (EthD-1) are found to be optimal dyes for this purpose. […] cells are distinguished from dead cells by the presence of intracellular esterase activity, determined by enzymatic conversion of non-fluorescen calcein AM to intensely fluorescent calcein. Calcein, which is a polyanionic dye, is well retained inside living cells producing an intense uniform green fluorescence. EthD-1 is excluded by intact membranes of viable cells, but it will enter cells with damaged cell membrane and bind to nucleic acids, producing a bright red fluorescence in dead cells. The protocol for using the live/dead kit is supplied by the manufacturer.
# To quantify the cytotoxic action of Peptide 1, 20 000 cells were placed in 24 well multiwell dishes. […] After 1-3-6 hrs the cellular viability was assessed using the Molecular Probes LIVE/DEAD kit. […]
# The cells were then observed using an inverted fluorescence microscope (Nikon Eclipse 2000E, Tokyo, Japan) equipped with FITC (green fluorescence) and TRITC (red fluorescence) filter optics. […] The proportion of viable cells (cells with green fluorescence) and the proportion of dead cells (red fluorescence) where then assessed by counting 100 cells. […]
# [2] = system: normal human forskin fibroblasts (HFF1); details: 20 μg/ml, exposure for 90 minutes
# Experimental: MTT is a yellowish solution and is converted to water-insoluble MTT-formazan of dark blue colour by mitochondrial dehydrogenases of living cells. The blue crystals are solubilized with acidifies isopropanol and the intensity is measured colorimetrically at a wavelength of 570 nm (protocol for the MTT assay was used according to the manufacturer's instructions). Using a MTT cell viability assay, a comparison was made between normal human forskin fibroblasts (HFF1) and three cancer cell lines T986 (neuroblastoma cells), GaMG (glioblastoma), and A172 (glioblastoma).
substance,measurement,setting,value
Ac-YGRKKRRQRRRGKTLRVAKAIYKRYIE-NH2 [Peptide 1],cytotoxic action (red cells),[1],slight cytotoxic action
same,surviving fraction,[2],58%
